The values below come from patent US6720423B2, “Dihydrobenzofuran and dihydrobenzothiophene 2,4-pentadienoic acid derivatives having selective activity for retinoid X (RXR) receptors” (Allergan, Inc., priority 2002, dated 2004).

One assay has as its target T1, RARβ (Homo sapiens, UniProt P10826).
T1 sequence (P10826 1-455): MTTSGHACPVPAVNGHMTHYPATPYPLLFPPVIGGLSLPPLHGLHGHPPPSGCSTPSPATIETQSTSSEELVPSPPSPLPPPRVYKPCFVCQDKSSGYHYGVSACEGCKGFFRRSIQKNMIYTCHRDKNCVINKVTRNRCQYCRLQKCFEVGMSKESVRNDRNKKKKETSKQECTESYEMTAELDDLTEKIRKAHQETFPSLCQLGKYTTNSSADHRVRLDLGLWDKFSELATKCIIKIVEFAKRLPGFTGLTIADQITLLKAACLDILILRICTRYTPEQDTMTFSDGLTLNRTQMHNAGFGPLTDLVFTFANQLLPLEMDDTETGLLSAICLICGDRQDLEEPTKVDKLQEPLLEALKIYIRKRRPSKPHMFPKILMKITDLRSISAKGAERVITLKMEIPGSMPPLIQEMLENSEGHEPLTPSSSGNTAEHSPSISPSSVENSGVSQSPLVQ
In words: ligand binding assay, RARβ. The note with it: second entry of cell, read-out: RAR Bind. Ki (nM) β. From the text: (§1) A holoreceptor transactivation assay and a ligand binding assay which measure the antagonist/agonist like activity of the compounds of the invention, or their ability to bind to the several retinoid receptor subtypes, respectively, are described in published PCT Application No. WO WO93/11755 (particularly on pages 30-33 and 37-41) published on Jun. 24, 1993, the specification of which is also incorporated herein by reference. A detailed experimental procedure for holoreceptor transactivations has been described by Heyman et al. Cell 68, 397-406, (1992); Allegretto et al. J. Biol. Chem. 268, 26625-26633, and Mangelsdorf et al. The Retinoids: Biology, Chemistry and Medicine, pp 319-349, Raven Press Ltd., New York, which are expressly incorporated herein by reference. The results obtained in this assay are expressed in EC50 numbers, as they are also in the chimeric receptor transactivation assay. The results of ligand binding assay are expressed in Kd numbers. (See Cheng et al. Biochemical Pharmacology Vol. 22 pp 3099-3108, expressly incorporated herein by reference.)

The target of a further assay is T2, RXRα (Homo sapiens, UniProt P19793).
T2 construct: the only RXRα plasmid printed
T2 sequence (P19793 227-462 limits assumed): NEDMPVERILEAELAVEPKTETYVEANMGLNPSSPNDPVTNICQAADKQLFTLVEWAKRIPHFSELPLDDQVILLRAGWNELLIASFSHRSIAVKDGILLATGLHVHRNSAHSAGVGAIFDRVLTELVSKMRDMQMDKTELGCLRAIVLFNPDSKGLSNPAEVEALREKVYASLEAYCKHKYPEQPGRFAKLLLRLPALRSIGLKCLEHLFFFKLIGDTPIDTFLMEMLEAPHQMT
Put plainly: receptor transactivation assay, RXRα. Type of assay: cell-based. The note with it: first entry of cell, read-out: RXR Trans. EC50 (nM) α.
Excerpt: as §1

The target of assay [1] is T3, RXRβ (UniProt P28704).
T3 sequence (P28704 1-520): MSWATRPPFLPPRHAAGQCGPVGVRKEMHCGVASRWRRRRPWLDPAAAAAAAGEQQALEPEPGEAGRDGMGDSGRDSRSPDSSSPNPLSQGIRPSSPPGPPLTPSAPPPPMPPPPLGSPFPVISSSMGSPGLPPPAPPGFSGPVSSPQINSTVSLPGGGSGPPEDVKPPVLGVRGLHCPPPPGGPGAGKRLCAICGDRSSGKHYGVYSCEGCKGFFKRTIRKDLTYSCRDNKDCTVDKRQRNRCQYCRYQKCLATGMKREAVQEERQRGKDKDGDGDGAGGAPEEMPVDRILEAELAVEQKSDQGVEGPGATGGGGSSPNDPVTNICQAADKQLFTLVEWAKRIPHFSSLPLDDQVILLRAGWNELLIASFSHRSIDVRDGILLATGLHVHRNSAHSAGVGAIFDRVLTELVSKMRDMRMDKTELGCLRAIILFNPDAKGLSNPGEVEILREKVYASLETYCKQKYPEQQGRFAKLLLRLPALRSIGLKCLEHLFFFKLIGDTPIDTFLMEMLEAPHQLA
In words: ligand binding assay, RXRβ. As to conditions: last entry of cell, read-out: RXR Bind Ki (nM) β. Also on record: other: RXRβ; last entry of cell.
Excerpt: as §1

For assay [2], the target named is T3, RXRβ. Put plainly: receptor transactivation assay, RXRβ. The assay is classed as cell-based. Also on record: RXR Trans; other: RXRβ; first entry of cell. As to conditions: for EC50: first entry of cell, read-out: RXR Trans. EC50 (nM) β; for RXR Trans. β, number in parentheses after EC50: parenthesised number, not defined in the patent.
Excerpt: as §1

Another assay addresses T4, RXRγ (UniProt P28705).
T4 sequence (P28705 1-463): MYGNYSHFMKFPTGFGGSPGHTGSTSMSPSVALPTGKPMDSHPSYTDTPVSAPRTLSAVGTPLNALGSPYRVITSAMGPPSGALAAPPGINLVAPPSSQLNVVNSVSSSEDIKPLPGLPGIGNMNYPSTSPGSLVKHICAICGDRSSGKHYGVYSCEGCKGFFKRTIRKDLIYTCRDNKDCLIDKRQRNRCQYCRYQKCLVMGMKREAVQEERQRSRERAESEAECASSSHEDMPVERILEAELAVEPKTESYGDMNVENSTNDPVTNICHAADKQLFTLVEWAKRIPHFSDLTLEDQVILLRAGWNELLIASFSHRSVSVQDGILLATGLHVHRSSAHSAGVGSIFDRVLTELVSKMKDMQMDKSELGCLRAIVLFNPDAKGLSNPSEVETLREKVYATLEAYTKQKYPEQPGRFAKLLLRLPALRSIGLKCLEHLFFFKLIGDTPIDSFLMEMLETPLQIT
Put plainly: receptor transactivation assay, RXRγ. The assay is classed as cell-based. Also on record: RXR Trans; other: RXRγ; first entry of cell. As to conditions: for EC50: first entry of cell, read-out: RXR Trans. EC50 (nM) γ; for RXR Trans. γ, number in parentheses after EC50: parenthesised number, not defined in the patent.
Excerpt: as §1

A value given as a limit tells only on which side of the number the result lay.

As for `CC(/C=C/[C@@H]1C[C@]1(C)c1cc(C(C)(C)C)c2c(c1)C(C)(C)CO2)=C\C(=O)O` [Compound 10, (6S,7S)-7-[5-(3,3-Dimethyl-7-t-butyl-2,3-dihydro-benzofuranyl)]-6,7-methano-3-methyl-octa-2E,4E-dienoic acid], the Ki (as a rule, a dissociation constant, usually derived from enzyme kinetics or from competition with a known ligand) turned out to be 19000 nM on RARβ and 7.1 nM at RXRβ [1]. For the same compound, the concentration for a half-maximal effect (EC50) (as a rule, the concentration needed to bring the measured effect to its halfway point) came out at 0.55 nM on RXRα, 12 nM on RXRβ [2] and 0.78 nM at RXRγ. Besides, the “RXR Trans. β, number in parentheses after EC50” value (“RXR Trans. β, number” for short) on RXRβ [2] stood at 90. For the same compound, the “RXR Trans. γ, number in parentheses after EC50” value (“RXR Trans. γ, number” for short) at RXRγ worked out at 95.
Take `CC(/C=C/[C@@H]1C[C@]1(C)c1cc(-c2ccc(F)cc2)c2c(c1)C(C)(C)CO2)=C\C(=O)O` [Compound 34, (E)-3-((E)-2-{(1S,2S)-2-[7-(4-Fluoro-phenyl)-3,3-dimethyl-2,3-dihydro-benzofuran-5-yl]-2-methyl-cyclopropyl}-vinyl)-but-2-enoic acid]: the figures for the Ki at RARβ and at RXRβ [1] were 8750 nM and 4 nM, respectively. The half-maximal effective concentration (EC50) came out at 0.37 nM on RXRα, 4.55 nM on RXRβ [2] and 0.56 nM at RXRγ. Moreover, the “RXR Trans. β, number” value at RXRβ [2] was found to be 93. The “RXR Trans. γ, number” value at RXRγ was 109.
Consider `CC(/C=C/[C@@H]1C[C@]1(C)c1cc(CC2CCCCC2)c2c(c1)C(C)(C)CO2)=C\C(=O)O` [Compound 16, (6S,7S)-7-[5-(7-Cyclohexylmethyl-3,3-dimethyl-2,3-dihydro-benzofuranyl)]-6,7-methano-3-methyl-octa-2E,4E-dienoic Acid], for which the results for the inhibitory constant (Ki) on RARβ and at RXRβ [1] were 9290 nM and 1.9 nM, respectively. The values for the EC50 on RXRα, at RXRβ [2] and at RXRγ were 0.215 nM, 1.15 nM and 0.29 nM, respectively. Besides, the “RXR Trans. β, number” value at RXRβ [2] worked out at 85. Moreover, on RXRγ, the “RXR Trans. γ, number” value worked out at 83.
Consider `CCCCC(=O)CCc1cc([C@@]2(C)C[C@H]2/C=C/C(C)=C/C(=O)O)cc2c1OCC2(C)C` [Compound 40], for which the Ki at RARβ is 22000 nM; at RXRβ [1], 69 nM. The results for the EC50 on RXRα, on RXRβ [2] and at RXRγ were 330 nM, 2040 nM and 395 nM, respectively. Besides, the “RXR Trans. β, number” value at RXRβ [2] is recorded as 103. On RXRγ, the “RXR Trans. γ, number” value came out at 94.
Turning to `CC(/C=C/[C@@H]1C[C@]1(C)c1cc(-c2ccccc2C)c2c(c1)C(C)(C)CO2)=C\C(=O)O` [Compound 26, 5-[(1S,2S)-2-(3,3-Dimethyl-7-o-tolyl-2,3-dihydro-benzofuran-5-yl)-2-methyl-cyclopropyl]-3-methyl-penta-2E,4E-dienoic acid], the Ki was above 10000 nM at RARβ and 1.9 nM at RXRβ [1]. Besides, the EC50 at RXRα is 0.2 nM; at RXRβ [2] it was 0.65 nM; at RXRγ it was 0.32 nM. Further, the “RXR Trans. β, number” value at RXRβ [2] is 99. Further, the “RXR Trans. γ, number” value on RXRγ is 107.
On to `CC(/C=C/[C@@H]1C[C@]1(C)c1cc(-c2c(C)cccc2C)c2c(c1)C(C)(C)CO2)=C\C(=O)O` [Compound 24, 5-{(1 S 2S)-2-[7-(2,6-Dimethyl-phenyl)-3,3-dimethyl-2,3-dihydro-benzofuran-5-yl]-2-methyl-cyclopropyl}-3-methyl-penta-2E,4E-dienoic acid], for which the results for the Ki on RARβ and at RXRβ [1] were above 10000 nM and 2.6 nM, respectively. Moreover, the values for the EC50 on RXRα, on RXRβ [2] and on RXRγ were 0.52 nM, 6.7 nM and 0.86 nM, respectively. In addition, the “RXR Trans. β, number” value on RXRβ [2] worked out at 125. In addition, the “RXR Trans. γ, number” value at RXRγ worked out at 105.
Consider `CCCCC(O)CCc1cc([C@@]2(C)C[C@H]2/C=C/C(C)=C/C(=O)O)cc2c1OCC2(C)C` (stereo partly drawn) [Compound 38, (E)-3-((E)-2-{(1S,2S)-2-[7-(3-Hydroxy-heptyl)-3,3-dimethyl-2,3-dihydro-benzofuran-5-yl]-2-methyl-cyclopropyl}-vinyl)-but-2-enoic acid], for which the figures for the Ki at RARβ and on RXRβ [1] were above 10000 nM and 557 nM, respectively. In addition, the 50% effective concentration (EC50) was determined as 1950 nM at RXRα, 1360 nM at RXRβ [2] and 7680 nM on RXRγ. Further, the “RXR Trans. γ, number” value on RXRγ is on record as 142.
Consider `CC(/C=C/[C@@H]1C[C@]1(C)c1cc(-c2ccccc2)c2c(c1)C(C)(C)CO2)=C\C(=O)O` [Compound 22, 6S,7S)-7-[5-(3,3-Dimethyl-7-phenyl-2,3-dihydro-benzofuranyl)1-6,7-methano-3-methyl-octa-2E,4E-dienoic acid], for which the Ki at RARβ was above 10000 nM; at RXRβ [1] it was 9.6 nM. For the same compound, the values for the EC50 at RXRα, on RXRβ [2] and at RXRγ were 8.3 nM, 28.4 nM and 12.8 nM, respectively. The “RXR Trans. β, number” value on RXRβ [2] worked out at 75. For the same compound, on RXRγ, the “RXR Trans. γ, number” value worked out at 110.
`CC(/C=C/[C@@H]1C[C@@H]1c1ccc2c(c1)C(C)(C)CO2)=C\C(=O)O` [Compound 36, (E)-3-{(E)-2-F[(1S,2S)-2-(3,3-Dimethyl-2,3-dihydro-benzofuran-5-yl)-cyclopropyl]-vinyl}-but-2-enoic acid]: the inhibition constant Ki at RARβ is above 10000 nM; at RXRβ [1] it was 312 nM. In addition, the results for the half-maximal effective concentration (EC50) at RXRα, at RXRβ [2] and at RXRγ were 609 nM, above 1000 nM and 743 nM, respectively. Moreover, the “RXR Trans. γ, number” value on RXRγ is reported as 109.
